Experimental data taken from patent US20150141351A1, “Solid Pharmaceutical Compositions” (AbbVie Deutschland GmbH & Co. KG, priority 2013, published 2015).

Test: drug substance degradation on hot melt extrusion
Format: physicochemical
Conditions: hot melt extrusion at a temperature of 165° C.
Method: Compound 1, Compound 2 and ritonavir were extruded using melt-extrusion. 31 g of copovidone, 3.5 g of vitamin E TPGS and 1.0 g of propylene glycol monolaurate were granulated for 2 minutes in a mill. After two hours, the mixture was blended with 5.09 g of ritonavir, 1.27 g of Compound 2, 7.64 g of Compound 1 and 0.5 g colloidal silica for 2 minutes in a blender and subsequently sieved over a 1.0 mm mesh sieve. The mixture was extruded on a Haake/Thermo Fisher extruder at 165° C. at a screw speed of 30 rpm. The extrudate thus prepared contained 15% Compound 1, 10% ritonavir, 2.5% Compound 2, 62% copovidone, 1% colloidal silica (areosil 200), 7% vitamin E TPGS, and 2% propylene glycol monolaurate.
The tablet was also tested for stability. […] The degradation of each drug substance after melt extrusion was within the specifications.

Q: Which “ritonavir degradation when co-extruded with Compound 1 and Compound 2” value does the source give for CC(C)c1nc(CN(C)C(=O)N[C@H](C(=O)N[C@@H](Cc2ccccc2)C[C@H](O)[C@H](Cc2ccccc2)NC(=O)OCc2cncs2)C(C)C)cs1 [ritonavir] here?
A: The value was “well within the acceptable levels”.
